In general, pIC50 refers to the IC50 on a negative log10 scale, so that one unit is a factor of ten.

Among the data in patent publication US20210189342A1, “COMPOSITIONS AND METHODS FOR MODULATING MONOCYTE AND MACROPHAGE INFLAMMATORY PHENOTYPES AND IMMUNOTHERAPY USES THEREOF” (Verseau Therapeutics, Inc., priority 2018, published 2021) are IC50 values, retold here.

pIC50: −log10 of the molar value.

One data set deals with IGSF6. The data set can be described thus: siRNA dose response, IGSF6 mRNA knockdown, Dual-Glo Luciferase Assay. The data set is classed as cell-based, human. The following applies: Hepa1-6 + reporter plasmid, 24 hr. As to the method:
(§1) Dose response curves for siRNAs were generated in vitro using a variety of cell lines according to Table 4.
(§2) Briefly, cells were seeded in 96-well plates and reverse transfected with siRNA, Lipofectamine® 2000 (0.5 uL/well; ThermoFisher), and, in some cases, a reporter plasmid (50 ng/well). The reporter plasmid (psiCHECK™-2, Promega) encoded both firefly luciferase and the gene of interest fused to renilla luciferase; silencing of the gene of interest results in proportional silencing of renilla luciferase but leaves firefly luciferase unaffected as an internal control.
(§3) After 24 hr incubation at 37° C., mRNA knockdown was measured using an endpoint assay. For targets without a reporter plasmid, a branched DNA (bDNA) assay was performed according to the manufacturer's instructions (QuantiGene® Singleplex Gene Expression Assay, ThermoFisher) to measure both the target gene and GAPDH (housekeeping gene) mRNA. Data are plotted as siRNA concentration (nM) vs. remaining mRNA (ratio of target gene to GAPDH, normalized to mock siRNA-transfected cells). For targets with a reporter plasmid, a Dual-Glo® Luciferase Assay was performed according to the manufacturer's instructions (Promega) to measure firefly and renilla luciferase expression. Data are plotted as siRNA concentration (nM) vs. remaining mRNA (ratio of renilla to firefly luminescence, normalized to mock siRNA-transfected cells).
(§4) For all dose response curves, a 4-parameter logistic model was applied to determine the IC50 of each siRNA sequence (Table 5 and FIG. 2). Data shown in Table 5 and FIG. 2 represent the mean of quadruplicates, +/−standard deviation.
Take “XD-09642: siRNA targeting IGSF6 (sense 5'-gaAGcGAGAGcuAaAcAGAdTsdT-3'; antisense 5'-UCUGUUuAGCUCUCGCUUCdTsdT-3'; RNA with 2'-O-methyl and phosphorothioate modifications, case key not given here, as printed in the source, key not given here)”: the negative logarithm of the IC50 (pIC50) was 10.46.
Same read-out and setting: under “XD-09643: siRNA targeting IGSF6 (sense 5'-guGcucGGcGuAuuuuucAdTsdT-3'; antisense 5'-UGAAAAAuACGCCGAGcACdTsdT-3'; as printed in the source, key not given here)” stands 10.11.
As for “XD-09645: siRNA targeting IGSF6 (sense 5'-agAAcuAuAccAuaAGAGAdTsdT-3'; antisense 5'-UCUCUuAUGGuAuAGUUCUdTsdT-3'; as printed in the source, key not given here)”, the negative-log IC50 (pIC50) was 10.47.
For “XD-09646: siRNA targeting IGSF6 (sense 5'-ccAuAAGAGAcAuguGGAAdTsdT-3'; antisense 5'-UUCcAcAUGUCUCUuAUGGdTsdT-3'; RNA with 2'-O-methyl and phosphorothioate modifications, case key not given here, as printed in the source, key not given here)”, the negative logarithm of the IC50 (pIC50) was 11.00.
In the case of “XD-09647: siRNA targeting IGSF6 (sense 5'-ggccAuAGAAAcGuuuuAAdTsdT-3'; antisense 5'-UuAAAACGUUUCuAUGGCCdTsdT-3'; as printed in the source, key not given here)”, the pIC50 was 10.16.
The same measure, in the same setting: for “XD-09648: siRNA targeting IGSF6 (sense 5'-ccAuAGAAAcGuuuuAAuudTsdT-3'; antisense 5'-AAUuAAAACGUUUCuAUGGdTsdT-3'; as printed in the source, key not given here)” the value was 9.30; for “XD-09649: siRNA targeting IGSF6 (sense 5'-acAuAuAucAucAgGucuudTsdT-3'; antisense 5'-AAGACCUGAUGAuAuAUGUdTsdT-3'; RNA with 2'-O-methyl and phosphorothioate modifications, case key not given here, as printed in the source, key not given here)”, 9.30.

A further data set concerns LILRB2. The data set can be described thus: siRNA dose response, LILRB2 mRNA knockdown, Dual-Glo Luciferase Assay. It is filed as cell-based, human. The following applies: Hepa1-6 + reporter plasmid, 24 hr. On the procedure: as §1, §2, §3, §4
In the case of “XD-10592: siRNA targeting LILRB2 (sense 5'-gcGAuAUGGcuGucAGuasa-3'; antisense 5'-dTUACUGAcAGCcAUAUCGCusu-3'; RNA with 2'-O-methyl and phosphorothioate modifications, case key not given here, as printed in the source, key not given here)”, the pIC50 was 9.34.
In the case of “XD-10593: siRNA targeting LILRB2 (sense 5'-cuAuGGUuAuGAcuuGAasa-3'; antisense 5'-dTUUcAAGUcAuAACcAuAGusu-3'; RNA with 2'-O-methyl and phosphorothioate modifications, case key not given here, as printed in the source, key not given here)”, the pIC50 is 9.87.
The same measure, in the same setting: for “XD-10594: siRNA targeting LILRB2 (sense 5'-gguuAuGAcuuGAccucusa-3'; antisense 5'-dTAGAGUUcAAGUcAuAACCusu-3'; RNA with 2'-O-methyl and phosphorothioate modifications, case key not given here, as printed in the source, key not given here)” the value was 10.05; for “XD-10597: siRNA targeting LILRB2 (sense 5'-cccAcuCcGucuAaGAucsa-3'; antisense 5'-dTGAUCUuAGACGGAGUGGGusu-3'; RNA with 2'-O-methyl and phosphorothioate modifications, case key not given here, as printed in the source, key not given here)”, 10.23.
“XD-10598: siRNA targeting LILRB2 (sense 5'-ccAcucCGucuAAgAucasa-3'; antisense 5'-dTUGAUCUuAGACGGAGUGGusu-3'; as printed in the source, key not given here)”: the negative-log IC50 (pIC50) is 9.96.
For “XD-10599: siRNA targeting LILRB2 (sense 5'-cacuccGucuAAGaucAasa-3'; antisense 5'-dTUUGAUCUuAGACGGAGUGusu-3'; RNA with 2'-O-methyl and phosphorothioate modifications, case key not given here, as printed in the source, key not given here)”, the negative logarithm of the IC50 (pIC50) is 9.90.

For a further data set, the system named is CLEC7A. The data set can be described thus: siRNA dose response, CLEC7A mRNA knockdown, Dual-Glo Luciferase Assay. The data set is classed as cell-based, human. The following applies: Hepa1-6 + reporter plasmid, 24 hr. As to the method: as §1, §2, §3, §4
Take “XD-10561: siRNA targeting CLEC7A (sense 5'-ggucAAGAuAAAugcAGAAdTsdT-3'; antisense 5'-UUCUGcAUUaAUCUUAACCdTsdT-3'; RNA with 2'-O-methyl and phosphorothioate modifications, case key not given here, as printed in the source, key not given here)”: the pIC50 was 11.05.
Take “XD-10562: siRNA targeting CLEC7A (sense 5'-agGuAGGcuAGuAuuAuuudTsdT-3'; antisense 5'-AAAuAAuACuAGCCuACCUdTsdT-3'; as printed in the source, key not given here)”: the negative logarithm of the IC50 (pIC50) is 10.48.
Regarding “XD-10564: siRNA targeting CLEC7A (sense 5'-ggGuAAGccAuAAgcGaaudTsdT-3'; antisense 5'-AUUCGCUuAUGGCUuACCCdTsdT-3'; RNA with 2'-O-methyl and phosphorothioate modifications, case key not given here, as printed in the source, key not given here)”, the pIC50 was above 11.40.
Same read-out and setting: under “XD-10565: siRNA targeting CLEC7A (sense 5'-ccAuAAGcGAAucuuAAuudTsdT-3'; antisense 5'-AAUuAAGAUUCGCUuAUGGdTsdT-3'; RNA with 2'-O-methyl and phosphorothioate modifications, case key not given here, as printed in the source, key not given here)” stands above 11.40; under “XD-10566: siRNA targeting CLEC7A (sense 5'-ugccAuAucucuAauAGAAdTsdT-3'; antisense 5'-UUCuAUuAGAGAuAUGGcAdTsdT-3'; RNA with 2'-O-methyl and phosphorothioate modifications, case key not given here, as printed in the source, key not given here)”, 11.22.
Turning to “XD-10567: siRNA targeting CLEC7A (sense 5'-gccuAGAAucuuGuAuAAudTsdT-3'; antisense 5'-AUuAuAcAAGAUUCuAGGCdTsdT-3'; as printed in the source, key not given here)”, the pIC50 is 10.64.
The same measure, in the same setting: for “XD-10568: siRNA targeting CLEC7A (sense 5'-ccuAGAAucuuGuauAAuAdTsdT-3'; antisense 5'-uAUuAuAcAAGAUUCuAGGdTsdT-3'; as printed in the source, key not given here)” the value was 10.80.
With “XD-10569: siRNA targeting CLEC7A (sense 5'-gcucucAuAGGAAaGuuuudTsdT-3'; antisense 5'-AAAACUUUCCuAUGAGAGCdTsdT-3'; as printed in the source, key not given here)”, the negative-log IC50 (pIC50) is 10.80.
